PubChem BioAssay (NCI)
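Briefly, cells in 96-well plates were exposed to five compound concentrations for 48 h, and endpoints were estimated by linear interpolation. GI50 marks 50% less growth. Definition used: TGI = concentration required for complete inhibition of growth.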

Columns and labels:
Assay in all cases: DTP human tumour cell line panel, 48 h
786-0 renal = system: 786-0 renal
A498 renal = system: A498 renal
A549 NSCLC = system: A549 NSCLC
ACHN renal = system: ACHN renal
BT-549 breast = system: BT-549 breast
CAKI-1 renal = system: CAKI-1 renal
CCRF-CEM leukemia = system: CCRF-CEM leukemia
COLO 205 colon = system: COLO 205 colon
DU-145 prostate = system: DU-145 prostate
HCC-2998 colon = system: HCC-2998 colon
HCT-116 colon = system: HCT-116 colon
HCT-15 colon = system: HCT-15 colon
HL-60(TB) leukemia = system: HL-60(TB) leukemia
HOP-62 NSCLC = system: HOP-62 NSCLC
HOP-92 NSCLC = system: HOP-92 NSCLC
HS 578T breast = system: HS 578T breast
HT29 colon = system: HT29 colon
IGROV1 ovarian = system: IGROV1 ovarian
K-562 leukemia = system: K-562 leukemia
KM12 colon = system: KM12 colon
LOX IMVI melanoma = system: LOX IMVI melanoma
M14 melanoma = system: M14 melanoma
MALME-3M melanoma = system: MALME-3M melanoma
MCF7 breast = system: MCF7 breast
MDA-MB-231 breast = system: MDA-MB-231 breast
MDA-MB-435 = system: MDA-MB-435
MOLT-4 leukemia = system: MOLT-4 leukemia
NCI-H226 lung = system: NCI-H226 lung
NCI-H23 lung = system: NCI-H23 lung
NCI-H460 lung = system: NCI-H460 lung
NCI-H522 lung = system: NCI-H522 lung
NCI/ADR-RES ovarian = system: NCI/ADR-RES ovarian
OVCAR-3 ovarian = system: OVCAR-3 ovarian
OVCAR-4 ovarian = system: OVCAR-4 ovarian
OVCAR-5 ovarian = system: OVCAR-5 ovarian
OVCAR-8 ovarian = system: OVCAR-8 ovarian
PC-3 prostate = system: PC-3 prostate
RPMI-8226 leukemia = system: RPMI-8226 leukemia
RXF 393 renal = system: RXF 393 renal
SF-268 CNS = system: SF-268 CNS
SF-295 CNS = system: SF-295 CNS
SF-539 CNS = system: SF-539 CNS
SK-MEL-2 melanoma = system: SK-MEL-2 melanoma
SK-MEL-28 melanoma = system: SK-MEL-28 melanoma
SK-MEL-5 melanoma = system: SK-MEL-5 melanoma
SK-OV-3 ovarian = system: SK-OV-3 ovarian
SN12C renal = system: SN12C renal
SNB-19 CNS = system: SNB-19 CNS
SNB-75 CNS = system: SNB-75 CNS
SR leukemia = system: SR leukemia
SW-620 colon = system: SW-620 colon
T-47D breast = system: T-47D breast
TK-10 renal = system: TK-10 renal
U251 CNS = system: U251 CNS
UACC-257 melanoma = system: UACC-257 melanoma
UACC-62 melanoma = system: UACC-62 melanoma
UO-31 renal = system: UO-31 renal

COc1cc(-c2cc(/C=C3\C(=O)Nc4ccc(Cl)cc43)[nH]n2)cc(OC)c1OC
GI50 (786-0 renal): 15.2 µM | TGI (786-0 renal): > 100 µM | GI50 (A498 renal): 1.07 µM | TGI (A498 renal): 7.24 µM | GI50 (A549 NSCLC): 7.08 µM | TGI (A549 NSCLC): > 100 µM | GI50 (ACHN renal): 3.46 µM | TGI (ACHN renal): 15.2 µM | GI50 (BT-549 breast): 2.52 µM | TGI (BT-549 breast): 7.16 µM | GI50 (CAKI-1 renal): 2.82 µM | TGI (CAKI-1 renal): 20.5 µM | GI50 (CCRF-CEM leukemia): 3.02 µM | TGI (CCRF-CEM leukemia): 26.7 µM | GI50 (COLO 205 colon): 2.92 µM | TGI (COLO 205 colon): 14.9 µM | GI50 (DU-145 prostate): 9.54 µM | TGI (DU-145 prostate): > 100 µM | GI50 (HCC-2998 colon): 64 µM | TGI (HCC-2998 colon): > 100 µM | GI50 (HCT-116 colon): 4.7 µM | TGI (HCT-116 colon): 69.3 µM | GI50 (HCT-15 colon): 3.6 µM | TGI (HCT-15 colon): > 100 µM | GI50 (HL-60(TB) leukemia): 2.26 µM | TGI (HL-60(TB) leukemia): 6.82 µM | GI50 (HOP-62 NSCLC): 5.14 µM | TGI (HOP-62 NSCLC): > 100 µM | GI50 (HOP-92 NSCLC): 1.45 µM | TGI (HOP-92 NSCLC): 16.8 µM | GI50 (HS 578T breast): 5.03 µM | TGI (HS 578T breast): > 100 µM | GI50 (HT29 colon): 7.54 µM | TGI (HT29 colon): 45.1 µM | GI50 (IGROV1 ovarian): 6.34 µM | TGI (IGROV1 ovarian): > 100 µM | GI50 (K-562 leukemia): 4.05 µM | TGI (K-562 leukemia): > 100 µM | GI50 (KM12 colon): 3.3 µM | TGI (KM12 colon): > 100 µM | GI50 (LOX IMVI melanoma): 3.45 µM | TGI (LOX IMVI melanoma): 22.7 µM | GI50 (M14 melanoma): 3.09 µM | TGI (M14 melanoma): 14 µM | GI50 (MALME-3M melanoma): 2.71 µM | TGI (MALME-3M melanoma): 8.63 µM | GI50 (MCF7 breast): 3.15 µM | TGI (MCF7 breast): > 100 µM | GI50 (MDA-MB-231 breast): 4.41 µM | TGI (MDA-MB-231 breast): > 100 µM | GI50 (MDA-MB-435): 3.97 µM | TGI (MDA-MB-435): > 100 µM | GI50 (MOLT-4 leukemia): 2.7 µM | TGI (MOLT-4 leukemia): 8.87 µM | GI50 (NCI-H226 lung): 3.84 µM | TGI (NCI-H226 lung): 26.5 µM | GI50 (NCI-H23 lung): 4.95 µM | TGI (NCI-H23 lung): > 100 µM | GI50 (NCI-H460 lung): 5.03 µM | TGI (NCI-H460 lung): > 100 µM | GI50 (NCI-H522 lung): 3.12 µM | TGI (NCI-H522 lung): 14.5 µM | GI50 (NCI/ADR-RES ovarian): 3.73 µM | TGI (NCI/ADR-RES ovarian): > 100 µM | GI50 (OVCAR-3 ovarian): 6.16 µM | TGI (OVCAR-3 ovarian): 71.6 µM | GI50 (OVCAR-4 ovarian): 5.11 µM | TGI (OVCAR-4 ovarian): > 100 µM | GI50 (OVCAR-5 ovarian): 27.9 µM | TGI (OVCAR-5 ovarian): > 100 µM | GI50 (OVCAR-8 ovarian): 4.31 µM | TGI (OVCAR-8 ovarian): > 100 µM | GI50 (PC-3 prostate): 2.51 µM | TGI (PC-3 prostate): 18.9 µM | GI50 (RPMI-8226 leukemia): 1.88 µM | TGI (RPMI-8226 leukemia): 4.81 µM | GI50 (RXF 393 renal): 9.21 µM | TGI (RXF 393 renal): > 100 µM | GI50 (SF-268 CNS): 35.3 µM | TGI (SF-268 CNS): > 100 µM | GI50 (SF-295 CNS): 3.96 µM | TGI (SF-295 CNS): 34.4 µM | GI50 (SF-539 CNS): 6.7 µM | TGI (SF-539 CNS): 26.3 µM | GI50 (SK-MEL-2 melanoma): 3.52 µM | TGI (SK-MEL-2 melanoma): 21 µM | GI50 (SK-MEL-28 melanoma): 7.37 µM | TGI (SK-MEL-28 melanoma): 72.4 µM | GI50 (SK-MEL-5 melanoma): 1.46 µM | TGI (SK-MEL-5 melanoma): 3.22 µM | GI50 (SK-OV-3 ovarian): 49.3 µM | TGI (SK-OV-3 ovarian): > 100 µM | GI50 (SN12C renal): 5.72 µM | TGI (SN12C renal): > 100 µM | GI50 (SNB-19 CNS): 5.04 µM | TGI (SNB-19 CNS): > 100 µM | GI50 (SNB-75 CNS): 3.44 µM | TGI (SNB-75 CNS): 27.9 µM | GI50 (SR leukemia): 3.06 µM | TGI (SR leukemia): 12.7 µM | GI50 (SW-620 colon): 6.1 µM | TGI (SW-620 colon): > 100 µM | GI50 (T-47D breast): 2.6 µM | TGI (T-47D breast): 18.3 µM | GI50 (TK-10 renal): 8.15 µM | TGI (TK-10 renal): 92.7 µM | GI50 (U251 CNS): 5.37 µM | TGI (U251 CNS): > 100 µM | GI50 (UACC-257 melanoma): 2.7 µM | TGI (UACC-257 melanoma): 11.6 µM | GI50 (UACC-62 melanoma): 1.73 µM | TGI (UACC-62 melanoma): 3.9 µM | GI50 (UO-31 renal): 2.81 µM | TGI (UO-31 renal): 23.6 µM
